Test results from publication PMC4128473 (Bioorganic & medicinal chemistry, 2014).

Target: T1, hA3AR (Homo sapiens, UniProt P0DMS8)
T1 sequence (P0DMS8 1-318): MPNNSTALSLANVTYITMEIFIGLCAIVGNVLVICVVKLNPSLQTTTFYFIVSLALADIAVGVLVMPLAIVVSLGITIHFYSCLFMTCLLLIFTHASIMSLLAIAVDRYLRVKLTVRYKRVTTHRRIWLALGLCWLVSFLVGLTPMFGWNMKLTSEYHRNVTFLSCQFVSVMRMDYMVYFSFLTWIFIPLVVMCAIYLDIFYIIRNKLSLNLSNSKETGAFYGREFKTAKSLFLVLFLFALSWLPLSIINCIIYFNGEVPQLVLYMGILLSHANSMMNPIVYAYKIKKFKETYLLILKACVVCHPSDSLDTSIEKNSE
Type: cell-based
Settings: compared to Cl-IB-MECA as reference full agonist

Structure (SMILES) | functional behaviour at hA3AR (cAMP assay)
COc1ccc(Cl)cc1CNc1ncnc2c1ncn2[C@@H]1OC[C@@](O)(CO)[C@H]1O [11c, 1′-[N^6-(2-Methoxy-5-chlorobenzyl)adenin-9-yl]-α-D-apio-L-furanose] | partial agonist
COc1ccc(Cl)cc1CNc1ncnc2c1ncn2[C@@H]1OC[C@](O)(CO)[C@H]1O [10c, 1′-[N^6-(2-Methoxy-5-chlorobenzyl)-adenin-9-yl]-β-D-apio-D-furanose] | inactive
